Source: ChEMBL document CHEMBL4219057, “Recent Advances of Colony-Stimulating Factor-1 Receptor (CSF-1R) Kinase and Its Inhibitors” (J Med Chem, 2018)
In brackets after ≈: the same amount, converted by molar mass.

Columns and labels:
Mus musculus [1] = assay: Inhibition of LPS-induced TNFalpha level in serum of Swiss Webster mouse at 40 mg/kg, po via gavage pretreated for 4.15 hrs followed by LPS stimulation measured after 1.5 hrs by ELISA relative to control; format: functional
Mus musculus [2] = assay: Inhibition of LPS-induced IL-6 level in serum of Swiss Webster mouse at 40 mg/kg, po via gavage pretreated for 4.15 hrs followed by LPS stimulation measured after 1.5 hrs by ELISA relative to control; format: functional
Mus musculus [3] = assay: Anti-inflammatory activity in unilateral ureter obstruction-induced C57BL/6 mouse renal inflammation model assessed as reduction in F4/80+ macrophage accumulation in kidney at 40 mg/kg, po via gavage administered at 12 hrs time interval for 7 days starting from end of UUO surgery by […] staining based immunohistochemical analysis relative to control; format: functional; settings: C57BL/6, po
[4] = Aqueous solubility of the compound by turbidity-based assay; format: physicochemical; settings: buffer
[5] = molecular target: Mast/stem cell growth factor receptor Kit (Homo sapiens, UniProt P10721); assay: Inhibition of KIT (unknown origin) using biotinylated peptide substrate
[6] = molecular target: Macrophage colony-stimulating factor 1 receptor (Homo sapiens, UniProt P07333); assay: Inhibition of CSF1R (unknown origin) using biotinylated peptide substrate
[7] = Protein binding in human plasma at 10 uM after 4 hrs by equilibrium dialysis method; format: ADME, cell-free; settings: read-out: PPB (converted)
NFS-60 = assay: Antiproliferative activity against mouse M-NFS-60 cells harboring CSF1; format: functional, cell-based
[8] = Tmax in cHL patient at 10 mg administered as single dose; format: ADME, organism-based; settings: human, in vivo
[9] = Drug uptake in tumor of recurrent GB patient at 1000 mg, po daily after 7 days; format: ADME, organism-based, Neoplasm; settings: human, read-out: Drug uptake

Sequence of Macrophage colony-stimulating factor 1 receptor (P07333 whole entry): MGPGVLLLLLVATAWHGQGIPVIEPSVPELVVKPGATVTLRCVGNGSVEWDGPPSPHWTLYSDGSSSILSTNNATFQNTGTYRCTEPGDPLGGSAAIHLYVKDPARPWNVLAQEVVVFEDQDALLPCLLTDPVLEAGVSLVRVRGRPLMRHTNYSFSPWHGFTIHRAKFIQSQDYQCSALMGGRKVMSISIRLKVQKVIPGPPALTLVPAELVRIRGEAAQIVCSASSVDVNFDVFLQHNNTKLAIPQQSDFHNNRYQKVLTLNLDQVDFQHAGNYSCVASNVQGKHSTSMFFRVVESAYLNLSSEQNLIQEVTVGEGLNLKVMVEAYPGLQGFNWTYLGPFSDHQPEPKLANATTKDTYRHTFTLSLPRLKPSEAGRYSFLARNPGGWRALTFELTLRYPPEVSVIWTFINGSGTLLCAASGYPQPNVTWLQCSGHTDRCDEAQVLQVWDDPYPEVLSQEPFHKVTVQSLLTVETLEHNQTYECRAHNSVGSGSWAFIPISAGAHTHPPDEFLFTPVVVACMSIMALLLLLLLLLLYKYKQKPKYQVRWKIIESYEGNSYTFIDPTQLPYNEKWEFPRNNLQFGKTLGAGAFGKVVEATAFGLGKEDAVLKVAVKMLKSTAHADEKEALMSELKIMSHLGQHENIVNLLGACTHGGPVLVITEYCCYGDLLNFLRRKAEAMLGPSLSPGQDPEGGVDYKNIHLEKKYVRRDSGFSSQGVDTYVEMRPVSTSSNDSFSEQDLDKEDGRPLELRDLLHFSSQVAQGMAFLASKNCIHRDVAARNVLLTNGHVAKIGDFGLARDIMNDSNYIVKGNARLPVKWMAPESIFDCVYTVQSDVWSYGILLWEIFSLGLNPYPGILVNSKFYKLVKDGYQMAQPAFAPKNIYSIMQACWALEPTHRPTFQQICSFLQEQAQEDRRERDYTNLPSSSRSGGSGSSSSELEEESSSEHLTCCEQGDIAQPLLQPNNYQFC
Sequence of Mast/stem cell growth factor receptor Kit (P10721 whole entry): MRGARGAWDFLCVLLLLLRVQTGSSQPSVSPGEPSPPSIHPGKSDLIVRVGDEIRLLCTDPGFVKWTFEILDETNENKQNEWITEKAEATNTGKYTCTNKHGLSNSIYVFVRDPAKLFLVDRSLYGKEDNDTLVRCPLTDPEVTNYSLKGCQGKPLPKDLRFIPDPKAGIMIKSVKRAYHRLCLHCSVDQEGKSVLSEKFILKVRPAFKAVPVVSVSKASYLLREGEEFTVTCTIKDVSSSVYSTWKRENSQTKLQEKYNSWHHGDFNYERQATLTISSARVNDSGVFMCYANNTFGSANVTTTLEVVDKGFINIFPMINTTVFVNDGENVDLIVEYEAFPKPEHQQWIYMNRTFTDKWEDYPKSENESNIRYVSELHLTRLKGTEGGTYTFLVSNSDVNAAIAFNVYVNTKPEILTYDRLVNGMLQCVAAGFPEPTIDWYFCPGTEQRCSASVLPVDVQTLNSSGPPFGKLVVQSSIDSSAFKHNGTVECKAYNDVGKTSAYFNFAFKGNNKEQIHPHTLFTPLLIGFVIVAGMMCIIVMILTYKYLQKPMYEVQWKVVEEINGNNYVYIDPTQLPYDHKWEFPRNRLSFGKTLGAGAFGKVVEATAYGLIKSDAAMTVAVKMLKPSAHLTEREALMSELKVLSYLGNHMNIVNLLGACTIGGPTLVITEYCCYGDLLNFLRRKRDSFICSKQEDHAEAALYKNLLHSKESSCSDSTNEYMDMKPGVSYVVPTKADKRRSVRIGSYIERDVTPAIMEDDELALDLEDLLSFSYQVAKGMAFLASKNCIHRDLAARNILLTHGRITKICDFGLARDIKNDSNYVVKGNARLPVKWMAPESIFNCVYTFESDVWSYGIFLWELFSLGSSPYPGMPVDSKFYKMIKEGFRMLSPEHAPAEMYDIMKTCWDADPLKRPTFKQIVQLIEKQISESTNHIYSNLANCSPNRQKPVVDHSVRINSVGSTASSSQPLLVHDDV

SMILES | solubility kinetic [4] [µM] | IC50 [6] [nM] | fraction unbound at 4 h, 10 µM [7] | EC50 (NFS-60) [nM] | other results
FC(F)(F)c1ccc(CNc2ccc(Cc3c[nH]c4ncccc34)cn2)cc1 | 14 (≈ 5.35 µg/mL) | 28 |  |  | inhibition in vivo at 40 mg/kg (Mus musculus [1]): 85%; inhibition in vivo at 40 mg/kg (Mus musculus [2]): 75%; inhibition in vivo at 40 mg/kg (Mus musculus [3]): 77%; IC50 [5]: 16 nM
CNC(=O)c1cc(Oc2ccc3nc(N[C@@H]4CCCC[C@H]4O)sc3c2)ccn1 [SOTULETINIB] |  |  | 0.037 | 71 | 
CNC(=O)c1cc(Oc2ccc3nc(N[C@@H]4CCCC[C@@H]4O)sc3c2)ccn1 |  |  | 0.031 | 140 | 
CC1(C)CC=C(c2nc(C3CC(C)(C)OC(C)(C)C3)ccc2NC(=O)c2nc(C#N)c[nH]2)CC1 [EDICOTINIB] |  |  |  |  | Tmax [8]: 1 to 3.5 h
COc1cnc2[nH]cc(Cc3ccc(NCc4ccc(C(F)(F)F)cc4)nc3)c2c1 | 77 (≈ 31.8 µg/mL) | 62 |  |  | 
FC(F)(F)c1ccc(CNc2ccc(Cc3c[nH]c4ncc(Cl)cc34)cn2)cn1 [PEXIDARTINIB] |  |  |  |  | concentration at 168 h [9]: 5500 ng/g
